Measurements: patent US5672715A, “Herbicidal substituted 3-aryl-pyrazoles” (Monsanto Company, priority 1995, dated 1997)
Where “and” joins values, the source holds several entries; their conditions need not be identical. Identical values can stand only once.

Key:
Type in all cases: in vivo
Barnyardgrass [1] = assay: pre-emergence herbicide test; conditions: 0.25 lb/A; for inhibition at 280.212 g/ha: Echinochloa crus-galli, pre-emergence, read-out: % plant inhibition
Summary of the method: (§1)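 Greenhouse pan assay in which seeds lie under a treated topsoil cover; carrier was acetone or water. Inhibition (%) was recorded about 14 days post-treatment.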

Bedstraw Catchweed [2] = assay: pre-emergence herbicide test; conditions: Galium aparine, pre-emergence, 0.25 lb/A; read-out: % plant inhibition
Summary of the method: as §1

Birdseye Speedwell [3] = assay: pre-emergence herbicide test; conditions: pre-emergence, 0.25 lb/A; read-out: % plant inhibition
Summary of the method: as §1

Blackgrass [4] = assay: pre-emergence herbicide test; conditions: Alopecurus myosuroides, pre-emergence, 0.25 lb/A; read-out: % plant inhibition
Summary of the method: as §1

Cocklebur [5] = assay: pre-emergence herbicide test; conditions: 0.25 lb/A; for inhibition at 280.212 g/ha: Xanthium strumarium, pre-emergence, read-out: % plant inhibition
Summary of the method: as §1

Common Chickweed [6] = assay: pre-emergence herbicide test; conditions: pre-emergence, 0.25 lb/A; read-out: % plant inhibition
Summary of the method: as §1

Corn [7] = assay: pre-emergence herbicide test; conditions: 0.25 lb/A; for inhibition at 280.212 g/ha: Zea mays, pre-emergence, read-out: % plant inhibition
Summary of the method: as §1

Downy Brome [8] = assay: pre-emergence herbicide test; conditions: Bromus tectorum, pre-emergence, 0.25 lb/A; read-out: % plant inhibition
Summary of the method: as §1

Giant Foxtail [9] = assay: pre-emergence herbicide test; conditions: Setaria faberi, pre-emergence, 0.25 lb/A; read-out: % plant inhibition
Summary of the method: as §1

Green Foxtail [10] = assay: pre-emergence herbicide test; conditions: Setaria viridis, pre-emergence; 0.25 lb/A; read-out: % plant inhibition
Summary of the method: as §1

Morning Glory [11] = assay: pre-emergence herbicide test; conditions: 0.25 lb/A; for inhibition at 280.212 g/ha: Ipomoea, pre-emergence, read-out: % plant inhibition
Summary of the method: as §1

Rape [12] = assay: pre-emergence herbicide test; conditions: pre-emergence, 0.25 lb/A; read-out: % plant inhibition
Summary of the method: as §1

Seedling Johnsongrass [13] = assay: pre-emergence herbicide test; conditions: Sorghum halepense, pre-emergence, 0.25 lb/A; read-out: % plant inhibition
Summary of the method: as §1

Soybean [14] = assay: pre-emergence herbicide test; conditions: Glycine max, pre-emergence, 0.25 lb/A; read-out: % plant inhibition
Summary of the method: as §1

Velvetleaf [15] = assay: pre-emergence herbicide test; conditions: 0.25 lb/A; for inhibition at 280.212 g/ha: Abutilon theophrasti, pre-emergence, read-out: % plant inhibition
Summary of the method: as §1

Wheat [16] = assay: pre-emergence herbicide test; conditions: Triticum aestivum, pre-emergence, 0.25 lb/A; read-out: % plant inhibition
Summary of the method: as §1

Wild Oats [17] = assay: pre-emergence herbicide test; conditions: Avena fatua, pre-emergence, 0.25 lb/A; read-out: % plant inhibition
Summary of the method: as §1

Barnyardgrass [18] = assay: post-emergence herbicide test; conditions: Echinochloa crus-galli, post-emergence, 0.25 lb/A; read-out: % plant inhibition
Summary of the method: (§2)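 Plants were raised from seed in topsoil pans in the greenhouse and treated post-emergence at two to three weeks of age. Candidate chemical was applied in spray solution or suspension containing about 0.4% emulsifier at 1870 L/Ha. Activity recorded as percent inhibition.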

Bedstraw Catchweed [19] = assay: post-emergence herbicide test; conditions: Galium aparine, post-emergence, 0.25 lb/A; read-out: % plant inhibition
Summary of the method: as §2

Birdseye Speedwell [20] = assay: post-emergence herbicide test; conditions: post-emergence, 0.25 lb/A; read-out: % plant inhibition
Summary of the method: as §2

Blackgrass [21] = assay: post-emergence herbicide test; conditions: Alopecurus myosuroides, post-emergence, 0.25 lb/A; read-out: % plant inhibition
Summary of the method: as §2

Cocklebur [22] = assay: post-emergence herbicide test; conditions: Xanthium strumarium, post-emergence, 0.25 lb/A; read-out: % plant inhibition
Summary of the method: as §2

Common Chickweed [23] = assay: post-emergence herbicide test; conditions: post-emergence, 0.25 lb/A; read-out: % plant inhibition
Summary of the method: as §2

Corn [24] = assay: post-emergence herbicide test; conditions: Zea mays, post-emergence, 0.25 lb/A; read-out: % plant inhibition
Summary of the method: as §2

Downy Brome [25] = assay: post-emergence herbicide test; conditions: Bromus tectorum, post-emergence, 0.25 lb/A; read-out: % plant inhibition
Summary of the method: as §2

Giant Foxtail [26] = assay: post-emergence herbicide test; conditions: Setaria faberi, post-emergence, 0.25 lb/A; read-out: % plant inhibition
Summary of the method: as §2

Green Foxtail [27] = assay: post-emergence herbicide test; conditions: Setaria viridis, post-emergence, 0.25 lb/A; read-out: % plant inhibition
Summary of the method: as §2

Morning Glory [28] = assay: post-emergence herbicide test; conditions: Ipomoea, post-emergence, 0.25 lb/A; read-out: % plant inhibition
Summary of the method: as §2

Rape [29] = assay: post-emergence herbicide test; conditions: post-emergence, 0.25 lb/A; read-out: % plant inhibition
Summary of the method: as §2

Seedling Johnsongrass [30] = assay: post-emergence herbicide test; conditions: Sorghum halepense, post-emergence, 0.25 lb/A; read-out: % plant inhibition
Summary of the method: as §2

Soybean [31] = assay: post-emergence herbicide test; conditions: Glycine max, post-emergence, 0.25 lb/A; read-out: % plant inhibition
Summary of the method: as §2

Velvetleaf [32] = assay: post-emergence herbicide test; conditions: Abutilon theophrasti, post-emergence, 0.25 lb/A; read-out: % plant inhibition
Summary of the method: as §2

Wheat [33] = assay: post-emergence herbicide test; conditions: Triticum aestivum, post-emergence, 0.25 lb/A; read-out: % plant inhibition
Summary of the method: as §2

Wild Oats [34] = assay: post-emergence herbicide test; conditions: Avena fatua, post-emergence, 0.25 lb/A; read-out: % plant inhibition
Summary of the method: as §2

| Structure (SMILES) | inhibition at 280.212 g/ha (Barnyardgrass [1]) [%] | inhibition at 280.212 g/ha (Bedstraw Catchweed [2]) [%] | inhibition at 280.212 g/ha (Birdseye Speedwell [3]) [%] | inhibition at 280.212 g/ha (Blackgrass [4]) [%] | inhibition at 280.212 g/ha (Cocklebur [5]) [%] | inhibition at 280.212 g/ha (Common Chickweed [6]) [%] | inhibition at 280.212 g/ha (Corn [7]) [%] | inhibition at 280.212 g/ha (Downy Brome [8]) [%] | inhibition at 280.212 g/ha (Giant Foxtail [9]) [%] | inhibition at 280.212 g/ha (Green Foxtail [10]) [%] | inhibition at 280.212 g/ha (Rape [12]) [%] | inhibition at 280.212 g/ha (Seedling Johnsongrass [13]) [%] | inhibition at 280.212 g/ha (Soybean [14]) [%] | inhibition at 280.212 g/ha (Velvetleaf [15]) [%] | inhibition at 280.212 g/ha (Wheat [16]) [%] | inhibition at 280.212 g/ha (Wild Oats [17]) [%] | inhibition at 280.212 g/ha (Barnyardgrass [18]) [%] | inhibition at 280.212 g/ha (Bedstraw Catchweed [19]) [%] | inhibition at 280.212 g/ha (Birdseye Speedwell [20]) [%] | inhibition at 280.212 g/ha (Blackgrass [21]) [%] | also measured |
| --- | --- | --- | --- | --- | --- | --- | --- | --- | --- | --- | --- | --- | --- | --- | --- | --- | --- | --- | --- | --- | --- |
| Cc1c(-c2cc(C(=O)OCC(C)C)c(Cl)cc2F)nn(C)c1C(F)(F)F [Compound 45] | 75 | 98 | 100 | 100 | 50 | 80 | 0 | 98 | 100 | 100 | 5 | 98 | 0 | 98 | 0 | 50 | 75 | 100 | 100 | 98 | inhibition at 280.212 g/ha (Morning Glory [11]): 30%; inhibition at 280.212 g/ha (Cocklebur [22]): 100%; inhibition at 280.212 g/ha (Common Chickweed [23]): 100%; inhibition at 280.212 g/ha (Corn [24]): 55%; inhibition at 280.212 g/ha (Downy Brome [25]): 95%; inhibition at 280.212 g/ha (Giant Foxtail [26]): 80%; inhibition at 280.212 g/ha (Green Foxtail [27]): 100%; inhibition at 280.212 g/ha (Morning Glory [28]): 50%; inhibition at 280.212 g/ha (Rape [29]): 50%; inhibition at 280.212 g/ha (Seedling Johnsongrass [30]): 95%; inhibition at 280.212 g/ha (Soybean [31]): 35%; inhibition at 280.212 g/ha (Velvetleaf [32]): 100%; inhibition at 280.212 g/ha (Wheat [33]): 17%; inhibition at 280.212 g/ha (Wild Oats [34]): 80% |
| CC(C)OC(=O)c1cc(-c2nn(C)c(C(F)(F)F)c2C(F)F)c(F)cc1Cl [Compound 13, 2-Chloro-5-[4-(difluoromethyl)-1-methyl-5-(trifluoromethyl)-1H-pyrazol-3-yl]-4-fluorobenzoic acid, 1-methylethyl ester] | 100 | 100 | 90 | 98 | 70 | 90 | 80 | 100 | 100 | 100 | 65 | 100 | 30 | 100 | 3 | 95 | 90 | 100 | 100 | 95 | % plant inhibition (Barnyardgrass [1]): 99%; % plant inhibition (Cocklebur [5]): 75%; % plant inhibition (Corn [7]): 65%; % plant inhibition (Morning Glory [11]): 50% and 93%; % plant inhibition (Velvetleaf [15]): 98%; inhibition at 280.212 g/ha (Cocklebur [22]): 95%; inhibition at 280.212 g/ha (Common Chickweed [23]): 98%; inhibition at 280.212 g/ha (Corn [24]): 55%; inhibition at 280.212 g/ha (Downy Brome [25]): 90%; inhibition at 280.212 g/ha (Giant Foxtail [26]): 95%; inhibition at 280.212 g/ha (Green Foxtail [27]): 100%; inhibition at 280.212 g/ha (Morning Glory [28]): 98%; inhibition at 280.212 g/ha (Rape [29]): 100%; inhibition at 280.212 g/ha (Seedling Johnsongrass [30]): 100%; inhibition at 280.212 g/ha (Soybean [31]): 90%; inhibition at 280.212 g/ha (Velvetleaf [32]): 100%; inhibition at 280.212 g/ha (Wheat [33]): 20%; inhibition at 280.212 g/ha (Wild Oats [34]): 90% |
| C=CCOC(=O)c1cc(-c2nn(C)c(C(F)(F)F)c2C)c(F)cc1Cl [Compound 54] | 100 | 80 | 98 | 35 | 35 | 90 | 10 | 75 | 99 | 100 | 0 | 99 | 5 | 100 | 5 | 30 | 95 | 98 | 100 | 30 | inhibition at 280.212 g/ha (Morning Glory [11]): 40%; inhibition at 280.212 g/ha (Cocklebur [22]): 99%; inhibition at 280.212 g/ha (Common Chickweed [23]): 90%; inhibition at 280.212 g/ha (Corn [24]): 35%; inhibition at 280.212 g/ha (Downy Brome [25]): 70%; inhibition at 280.212 g/ha (Giant Foxtail [26]): 90%; inhibition at 280.212 g/ha (Green Foxtail [27]): 98%; inhibition at 280.212 g/ha (Morning Glory [28]): 80%; inhibition at 280.212 g/ha (Rape [29]): 75%; inhibition at 280.212 g/ha (Seedling Johnsongrass [30]): 90%; inhibition at 280.212 g/ha (Soybean [31]): 80%; inhibition at 280.212 g/ha (Velvetleaf [32]): 100%; inhibition at 280.212 g/ha (Wheat [33]): 16%; inhibition at 280.212 g/ha (Wild Oats [34]): 80% |
